Laboratory results as given in the NIST ThermoML archive (doi:10.1021/je049912x).
± gives the expanded uncertainty stated by the source.

Key:
[1] = 101.33 kPa, Liquid
[2] = xn = mol fraction of the nth substance listed; conditions: 101.33 kPa, Liquid

CCCCO [butan-1-ol]
mass density ([1]; 298.15 K): 807.7 ± 3 kg/m3
speed of sound ([1]; 298.15 K): 1238 ± 10 m/s
viscosity ([1]; 298.15 K): 2.564 ± 0.12 mPa·s
mass density ([1]; 308.15 K): 800.1 ± 3.4 kg/m3
speed of sound ([1]; 308.15 K): 1211 ± 10 m/s
viscosity ([1]; 308.15 K): 2 ± 0.093 mPa·s

CCCCO [butan-1-ol] + CCc1ccccc1
mass density ([2]; 298.15 K, x2 = 0): 807.7 ± 3 kg/m3
speed of sound ([2]; 298.15 K, x2 = 0): 1238 ± 10 m/s
viscosity ([2]; 298.15 K, x2 = 0): 2.564 ± 0.12 mPa·s
mass density ([2]; 308.15 K, x2 = 0): 800.1 ± 3.4 kg/m3
speed of sound ([2]; 308.15 K, x2 = 0): 1211 ± 10 m/s
viscosity ([2]; 308.15 K, x2 = 0): 2 ± 0.093 mPa·s

CCO [ethanol]
mass density ([1]; 298.15 K): 785.5 ± 2.9 kg/m3
speed of sound ([1]; 298.15 K): 1160 ± 10 m/s
viscosity ([1]; 298.15 K): 1.117 ± 0.027 mPa·s
mass density ([1]; 308.15 K): 776.3 ± 3.2 kg/m3
speed of sound ([1]; 308.15 K): 1112 ± 9 m/s
viscosity ([1]; 308.15 K): 0.935 ± 0.024 mPa·s

CCO [ethanol] + CCc1ccccc1
mass density ([2]; 298.15 K, x2 = 0): 785.5 ± 2.9 kg/m3
speed of sound ([2]; 298.15 K, x2 = 0): 1160 ± 10 m/s
viscosity ([2]; 298.15 K, x2 = 0): 1.117 ± 0.027 mPa·s
mass density ([2]; 308.15 K, x2 = 0): 776.3 ± 3.2 kg/m3
speed of sound ([2]; 308.15 K, x2 = 0): 1112 ± 9 m/s
viscosity ([2]; 308.15 K, x2 = 0): 0.935 ± 0.024 mPa·s

CCc1ccccc1 [ethylbenzene]
mass density ([1]; 298.15 K): 862 ± 3.3 kg/m3
speed of sound ([1]; 298.15 K): 1312 ± 11 m/s
viscosity ([1]; 298.15 K): 0.628 ± 0.017 mPa·s
mass density ([1]; 308.15 K): 855.5 ± 3.6 kg/m3
speed of sound ([1]; 308.15 K): 1276 ± 10 m/s
viscosity ([1]; 308.15 K): 0.553 ± 0.015 mPa·s

CCc1ccccc1 [ethylbenzene] + CCCCO
mass density ([2]; 298.15 K, x1 = 0.1035): 816.7 ± 3.1 kg/m3
speed of sound ([2]; 298.15 K, x1 = 0.1035): 1246 ± 10 m/s
viscosity ([2]; 298.15 K, x1 = 0.1035): 1.985 ± 0.092 mPa·s
mass density ([2]; 298.15 K, x1 = 0.205): 821.2 ± 3.1 kg/m3
speed of sound ([2]; 298.15 K, x1 = 0.205): 1256 ± 10 m/s
viscosity ([2]; 298.15 K, x1 = 0.205): 1.565 ± 0.074 mPa·s
mass density ([2]; 298.15 K, x1 = 0.3221): 828.1 ± 3.1 kg/m3
speed of sound ([2]; 298.15 K, x1 = 0.3221): 1264 ± 10 m/s
viscosity ([2]; 298.15 K, x1 = 0.3221): 1.236 ± 0.06 mPa·s
mass density ([2]; 298.15 K, x1 = 0.365): 831.1 ± 3.1 kg/m3
speed of sound ([2]; 298.15 K, x1 = 0.365): 1267 ± 10 m/s
viscosity ([2]; 298.15 K, x1 = 0.365): 1.147 ± 0.056 mPa·s
mass density ([2]; 298.15 K, x1 = 0.5071): 839.6 ± 3.2 kg/m3
speed of sound ([2]; 298.15 K, x1 = 0.5071): 1277 ± 10 m/s
viscosity ([2]; 298.15 K, x1 = 0.5071): 0.916 ± 0.046 mPa·s
mass density ([2]; 298.15 K, x1 = 0.6494): 845.7 ± 3.2 kg/m3
speed of sound ([2]; 298.15 K, x1 = 0.6494): 1288 ± 11 m/s
viscosity ([2]; 298.15 K, x1 = 0.6494): 0.764 ± 0.039 mPa·s
mass density ([2]; 298.15 K, x1 = 0.8136): 854.5 ± 3.3 kg/m3
speed of sound ([2]; 298.15 K, x1 = 0.8136): 1301 ± 11 m/s
viscosity ([2]; 298.15 K, x1 = 0.8136): 0.693 ± 0.036 mPa·s
mass density ([2]; 298.15 K, x1 = 0.91): 858.6 ± 3.3 kg/m3
speed of sound ([2]; 298.15 K, x1 = 0.91): 1307 ± 11 m/s
viscosity ([2]; 298.15 K, x1 = 0.91): 0.649 ± 0.034 mPa·s
mass density ([2]; 298.15 K, x1 = 1): 862 ± 3.3 kg/m3
speed of sound ([2]; 298.15 K, x1 = 1): 1312 ± 11 m/s
viscosity ([2]; 298.15 K, x1 = 1): 0.628 ± 0.034 mPa·s
mass density ([2]; 308.15 K, x1 = 0.1035): 808.9 ± 3.4 kg/m3
speed of sound ([2]; 308.15 K, x1 = 0.1035): 1217 ± 10 m/s
viscosity ([2]; 308.15 K, x1 = 0.1035): 1.569 ± 0.074 mPa·s
mass density ([2]; 308.15 K, x1 = 0.205): 815.3 ± 3.4 kg/m3
speed of sound ([2]; 308.15 K, x1 = 0.205): 1223 ± 10 m/s
viscosity ([2]; 308.15 K, x1 = 0.205): 1.253 ± 0.061 mPa·s
mass density ([2]; 308.15 K, x1 = 0.3221): 822 ± 3.5 kg/m3
speed of sound ([2]; 308.15 K, x1 = 0.3221): 1229 ± 10 m/s
mass density ([2]; 308.15 K, x1 = 0.365): 824.5 ± 3.5 kg/m3
speed of sound ([2]; 308.15 K, x1 = 0.365): 1231 ± 10 m/s
viscosity ([2]; 308.15 K, x1 = 0.365): 0.941 ± 0.047 mPa·s
mass density ([2]; 308.15 K, x1 = 0.5071): 832.1 ± 3.5 kg/m3
speed of sound ([2]; 308.15 K, x1 = 0.5071): 1239 ± 10 m/s
viscosity ([2]; 308.15 K, x1 = 0.5071): 0.765 ± 0.04 mPa·s
mass density ([2]; 308.15 K, x1 = 0.6494): 839.1 ± 3.5 kg/m3
speed of sound ([2]; 308.15 K, x1 = 0.6494): 1249 ± 10 m/s
viscosity ([2]; 308.15 K, x1 = 0.6494): 0.651 ± 0.035 mPa·s
mass density ([2]; 308.15 K, x1 = 0.8136): 846 ± 3.6 kg/m3
speed of sound ([2]; 308.15 K, x1 = 0.8136): 1262 ± 10 m/s
viscosity ([2]; 308.15 K, x1 = 0.8136): 0.577 ± 0.031 mPa·s
mass density ([2]; 308.15 K, x1 = 0.91): 852.6 ± 3.6 kg/m3
speed of sound ([2]; 308.15 K, x1 = 0.91): 1268 ± 10 m/s
viscosity ([2]; 308.15 K, x1 = 0.91): 0.566 ± 0.031 mPa·s
mass density ([2]; 308.15 K, x1 = 1): 855.5 ± 3.6 kg/m3
speed of sound ([2]; 308.15 K, x1 = 1): 1276 ± 10 m/s
viscosity ([2]; 308.15 K, x1 = 1): 0.553 ± 0.03 mPa·s
